Laboratory results reported in patent US20210198277A1, “AMINE-SUBSTITUTED ARYL OR HETEROARYL COMPOUNDS” (Epizyme, Inc., priority 2016, published 2021).
Like-named read-outs stand apart in the source and are kept apart here.

Columns and labels:
human EHMT2 913-1193 = target: T1, human EHMT2 913-1193 (Homo sapiens, UniProt Q96KQ7); experiment: EHMT2 enzyme assay on histone peptide substrate (EHMT2 PEP); format: biochemical
T1 construct: recombinant purified human EHMT2 913-1193, Viva; purchased Viva
T1 sequence (Q96KQ7 913-1193): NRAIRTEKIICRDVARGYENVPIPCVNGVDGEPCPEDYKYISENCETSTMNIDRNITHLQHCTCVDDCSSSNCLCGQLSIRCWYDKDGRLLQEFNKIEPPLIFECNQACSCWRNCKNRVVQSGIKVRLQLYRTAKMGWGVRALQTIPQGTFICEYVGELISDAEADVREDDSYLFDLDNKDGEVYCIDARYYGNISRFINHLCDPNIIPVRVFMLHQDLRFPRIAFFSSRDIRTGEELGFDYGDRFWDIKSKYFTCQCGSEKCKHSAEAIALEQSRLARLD
Method: Recombinant purified human EHMT2 913-1193 (55 μM) synthesized by Viva was used for all experiments. Biotinylated histone peptides were synthesized by Biopeptide and HPLC-purified to >95% purity. Streptavidin Flashplates and seals were purchased from PerkinElmer and 384 Well V-bottom Polypropylene Plates were from Greiner. ^3H-labeled S-adenosylmethionine (^3H-SAM) was obtained from American Radiolabeled Chemicals with a specific activity of 80 Ci/mmol. Unlabeled SAM and S-adenosylhomocysteine (SAH) were obtained from American Radiolabeled Chemicals and Sigma-Aldrich respectively. Flashplates were washed in a Biotek ELx-405 with 0.1% Tween. 384-well Flashplates and 96-well filter binding plates were read on a TopCount microplate reader (PerkinElmer). Compound serial dilutions were performed on a Freedom EVO (Tecan) and spotted into assay plates using a Thermo Scientific Matrix PlateMate (Thermo Scientific). Reagent cocktails were added by Multidrop Combi (Thermo Scientific).
General Procedure for EHMT2 Enzyme Assay on Histone Peptide Substrate.
10-point curves of test compounds were made on a Freedom EVO (Tecan) using serial 3-fold dilutions in DMSO, beginning at 2.5 mM (final top concentration of compound was 50 μM and the DMSO was 2%). A 1 μL aliquot of the inhibitor dilution series was spotted in a polypropylene 384-well V-bottom plate (Greiner) using a Thermo Scientific Matrix PlateMate (Thermo Scientific). […] Compounds were incubated for 30 minutes with 40 μL per well of 0.031 nM EHMT2 (recombinant purified human EHMT2 913-1193, Viva) in 1× assay buffer (20 mM Bicine [pH 7.5], 0.002% Tween 20, 0.005% Bovine Skin Gelatin and 1 mM TCEP). […] Reactions were incubated for 60 minutes at room temperature and quenched with 10 μL per well of 400 μM unlabeled SAM, then transferred to a 384-well streptavidin Flashplate (PerkinElmer) and washed in a Biotek ELx-405 well washer with 0.1% Tween after 60 minutes. 384-well Flashplates were read on a TopCount microplate reader (PerkinElmer).

EHMT1 = target: T2, EHMT1 (Homo sapiens, UniProt Q9H9B1); experiment: EHMT1 enzyme assay on peptide substrate (EHMT1 PEP); format: biochemical
T2 sequence (Q9H9B1 1-1298): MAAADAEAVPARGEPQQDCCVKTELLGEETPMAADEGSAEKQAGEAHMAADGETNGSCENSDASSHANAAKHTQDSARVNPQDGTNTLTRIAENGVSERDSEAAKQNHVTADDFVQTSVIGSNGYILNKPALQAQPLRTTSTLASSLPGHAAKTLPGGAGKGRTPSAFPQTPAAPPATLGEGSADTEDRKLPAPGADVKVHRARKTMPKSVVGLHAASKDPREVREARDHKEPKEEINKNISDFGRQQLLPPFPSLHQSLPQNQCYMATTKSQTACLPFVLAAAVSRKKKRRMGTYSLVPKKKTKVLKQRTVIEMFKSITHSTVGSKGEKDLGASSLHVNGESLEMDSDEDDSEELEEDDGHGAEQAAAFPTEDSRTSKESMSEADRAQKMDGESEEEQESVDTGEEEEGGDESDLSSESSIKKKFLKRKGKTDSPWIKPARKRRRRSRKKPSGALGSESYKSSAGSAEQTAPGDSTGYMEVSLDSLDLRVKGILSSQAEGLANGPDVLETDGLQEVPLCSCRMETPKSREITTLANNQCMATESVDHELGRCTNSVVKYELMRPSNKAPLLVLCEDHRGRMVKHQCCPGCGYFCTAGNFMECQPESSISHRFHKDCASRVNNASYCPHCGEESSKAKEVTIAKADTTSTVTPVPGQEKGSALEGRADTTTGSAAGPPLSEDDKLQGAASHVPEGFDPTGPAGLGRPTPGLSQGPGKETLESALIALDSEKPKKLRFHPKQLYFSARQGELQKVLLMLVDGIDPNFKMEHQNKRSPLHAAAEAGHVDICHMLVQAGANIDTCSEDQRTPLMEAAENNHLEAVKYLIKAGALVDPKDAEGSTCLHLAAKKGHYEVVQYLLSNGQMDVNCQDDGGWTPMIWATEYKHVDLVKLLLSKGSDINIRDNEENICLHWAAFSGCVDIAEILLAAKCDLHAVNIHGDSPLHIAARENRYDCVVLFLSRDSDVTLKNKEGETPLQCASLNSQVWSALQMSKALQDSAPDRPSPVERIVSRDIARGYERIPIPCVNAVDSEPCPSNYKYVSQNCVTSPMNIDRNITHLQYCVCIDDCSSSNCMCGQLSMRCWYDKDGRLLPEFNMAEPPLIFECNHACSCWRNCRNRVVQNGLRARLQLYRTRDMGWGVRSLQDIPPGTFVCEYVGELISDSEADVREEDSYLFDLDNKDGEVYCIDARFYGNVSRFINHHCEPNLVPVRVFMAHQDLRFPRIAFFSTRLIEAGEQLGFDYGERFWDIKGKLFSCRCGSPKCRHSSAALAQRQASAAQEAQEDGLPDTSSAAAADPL

[1] = Table II, read-out: EHMT2 PEP (IC50 μM)
[2] = Table II, read-out: EHMT1 PEP (IC50 μM)
[3] = Table VII, read-out: EHMT2 PEP IC50
[4] = Table VII, read-out: EHMT1 PEP IC50
[5] = Table III, read-out: EHMT2 PEP (IC50 μM)
[6] = Table III, read-out: EHMT1 PEP (IC50 μM)

IC50 (human EHMT2 913-1193; [1]) | IC50 (EHMT1; [2]) | SMILES | further results
> 10 µM | > 10 µM | O=C(NCCNc1ccnc(NCC2CCNCC2)n1)c1ccc2c(c1)OC(F)(F)O2 [Compound 92] | –
> 10 µM | > 10 µM | CC(=O)N1CCC(CNc2nccc(NCCNC(=O)c3ccc4c(c3)CC(=O)N4)n2)CC1 [Compound 98] | –
– | – | CCNc1nc(C)cc(Nc2ccc(NC(=O)Nc3ccc(F)cc3)cc2)n1 [Compound 1116] | IC50 (human EHMT2 913-1193; [3]): 1 to 10 µM; IC50 (EHMT1; [4]): > 10 µM
> 10 µM | > 10 µM | CCCCNc1ccnc(NCCCN(C)C)n1 [Compound 78] | –
> 10 µM | > 10 µM | CCCCNc1nccc(NC2CCC(NC(C)=O)CC2)n1 (stereo not drawn) [Compound 71] | –
> 10 µM | > 10 µM | COc1ccc(Nc2cccc3nn(C)cc23)cc1OCCCN1CCCC1 [Compound 197] | –
> 10 µM | > 10 µM | COCCNc1nccc(N)n1 [Compound 75] | –
> 10 µM | > 10 µM | CCCCNc1ncc(-c2ccccc2)c(N)n1 [Compound 82] | –
> 10 µM | > 10 µM | CCCCNc1nccc(NC2CCNCC2)n1 [Compound 64] | –
1 to 10 µM | 1 to 10 µM | COc1ccc(Nc2ccnc(CNC3CCOCC3)n2)cc1OCCCN1CCCC1 [Compound 190] | –
– | – | CNc1ccnc(Nc2ccc(OC(F)(F)F)c(OCCCN3CCCC3)c2)n1 [Compound 315, N^4-methyl-N^2-(3-(3-(pyrrolidin-1-yl)propoxy)-4-(trifluoromethoxy)phenyl)pyrimidine-2,4-diamine] | IC50 (human EHMT2 913-1193; [5]): 1 to 10 µM; IC50 (EHMT1; [6]): 1 to 10 µM
1 to 10 µM | 1 to 10 µM | COc1ccc(Nc2nccc(N3CCCCC3)n2)cc1OCCCN1CCCC1 [Compound 125] | –
> 10 µM | > 10 µM | O=C(NCCNc1ccnc(NCC2CCNCC2)n1)c1cn(C2CC2)nn1 [Compound 93] | –
– | – | CCc1ccccc1NC(=O)Nc1ccc(Nc2nc(C)cc(N3CCCC3)n2)cc1 [Compound 1115] | IC50 (human EHMT2 913-1193; [3]): 1 to 10 µM; IC50 (EHMT1; [4]): 1 to 10 µM
1 to 10 µM | 1 to 10 µM | COc1ccc(Nc2nccc(NCC3CCNCC3)n2)cc1OCCCN1CCCC1Cc1ccccc1 (stereo not drawn) [Compound 116] | –
– | – | Cc1cc(N(C)C)nc(Nc2ccc(NC(=O)Nc3ccc(Cl)cc3)cc2)n1 [Compound 1117] | IC50 (human EHMT2 913-1193; [3]): 1 to 10 µM; IC50 (EHMT1; [4]): > 10 µM
1 to 10 µM | 1 to 10 µM | CN1CCC(CNc2nccc(NCCNC(=O)c3ccc4c(c3)CC(=O)N4)n2)CC1 [Compound 97] | –
> 10 µM | > 10 µM | CCCCNc1ccnc(NCCCN2CCCC2)n1 [Compound 73] | –
> 10 µM | > 10 µM | COc1ccc(Nc2nccc(CNC3CCOCC3)n2)cc1OCCCN1CCCC1 [Compound 107] | –
> 10 µM | > 10 µM | CCCCNc1nccc(NCC2CCOC2)n1 (stereo not drawn) [Compound 62] | –
1 to 10 µM | 1 to 10 µM | COc1ccc(Nc2cc(NCC3CCNCC3)ncn2)cc1OCCCN1CCCC1 [Compound 108] | –
> 10 µM | > 10 µM | O=C(NCCNc1ccnc(NCC2CCNCC2)n1)c1cccc(N2CCCC2)c1 [Compound 100] | –
> 10 µM | > 10 µM | COc1ccc(Nc2ncc(NC(C)=O)cn2)cc1OCCCN1CCCC1 [Compound 194] | –

IC50 (human EHMT2 913-1193; [1]) | IC50 (EHMT1; [2]) | SMILES | further results
– | – | COc1ccc(Nc2nccc(NCC3COC3)n2)cc1OCCCN1CCCC1 [Compound 256, N^2-(4-methoxy-3-(3-(pyrrolidin-1-yl)propoxy)phenyl)-N^4-(oxetan-3-ylmethyl)pyrimidine-2,4-diamine] | IC50 (human EHMT2 913-1193; [5]): > 10 µM; IC50 (EHMT1; [6]): > 10 µM
1 to 10 µM | 1 to 10 µM | CNc1nc(Nc2ccc(OC)c(OCCCN3CCCC3)c2)ncc1Cl [Compound 211] | –
1 to 10 µM | 1 to 10 µM | COc1ccc(Nc2cccc(NCC3CCNCC3)n2)cc1OCCCN1CCCC1 [Compound 113] | –
> 10 µM | > 10 µM | COc1ccc(Nc2nccc(CNC3CCN(C)CC3)n2)cc1OCCCN1CCCC1 [Compound 111] | –
> 10 µM | 1 to 10 µM | CCCCNc1ncc(C)c(NCC2CCNCC2)n1 [Compound 91] | –
1 to 10 µM | 1 to 10 µM | COc1ccc(Nc2nccc(NCC3CCN(C(C)=O)CC3)n2)cc1NC(=O)CCN1CCCC1 [Compound 121] | –
> 10 µM | > 10 µM | COc1ccc(Nc2nccc(NCC3CCN(C(C)=O)CC3)n2)cc1OCCCN1CCCC1=O [Compound 119] | –
> 10 µM | > 10 µM | COc1ccc(Nc2ncc(N)cn2)cc1OCCCN1CCCC1 [Compound 213] | –
1 to 10 µM | 1 to 10 µM | O=C1Cc2cc(C(=O)NCCNc3ccnc(NCC4CCNCC4)n3)ccc2N1 [Compound 96] | –
> 10 µM | > 10 µM | CCCCNc1nccc(C(N)=O)n1 [Compound 80] | –
> 10 µM | > 10 µM | CC(=O)N1CCC(CNc2ccnc(Nc3cccc(NC(=O)c4cn(C5CC5)nn4)c3)n2)CC1 [Compound 123] | –
1 to 10 µM | 0.1 to 1 µM | COc1ccc(Nc2nccc(CNC3CCN(C(C)=O)CC3)n2)cc1OCCCN1CCCC1 [Compound 106] | –
> 10 µM | > 10 µM | CCCCNc1nccc(NCCCN(C)C)n1 [Compound 76] | –
1 to 10 µM | 1 to 10 µM | CCCCNc1nccc(NCC2CCNCC2)n1 [Compound 60] | –
> 10 µM | > 10 µM | CCCCNc1nccc(NC2CCN(C(C)=O)CC2)n1 [Compound 65] | –
1 to 10 µM | 1 to 10 µM | CCCCNc1nc(C)cc(NCC2CCNCC2)n1 [Compound 86] | –
1 to 10 µM | 1 to 10 µM | COc1ccc(Nc2nccc(N3CCCC3)n2)cc1OCCCN1CCCC1 [Compound 124] | –
> 10 µM | > 10 µM | CCCCNc1ncc(C#N)c(NCC2CCNCC2)n1 [Compound 83] | –
1 to 10 µM | > 10 µM | CN1CCC(CNc2nccc(NCCNC(=O)c3ccc4c(c3)CC(=O)N4)n2)CC1 [Compound 101] | –
> 10 µM | > 10 µM | O=C(NCCNc1ccnc(NCC2CCNCC2)n1)c1ccc(N2CCCC2)cc1 [Compound 99] | –
> 10 µM | > 10 µM | COc1ccc(Nc2cccn3ncnc23)cc1OCCCN1CCCC1 [Compound 201] | –
> 10 µM | 1 to 10 µM | CCCCNc1nccc(NCCCN)n1 [Compound 79] | –
